Assay: Inhibition of Beta-glucosidase activity.

IC50 [µM]	Compound
> 500	O=C1c2cccc([N+](=O)[O-])c2C(=O)N1c1ccccc1
> 500	O=C1c2ccccc2C(=O)N1CCCc1ccccc1 [2-(3-Phenyl-propyl)-isoindole-1,3-dione]
> 500	O=C1c2c(Cl)c(Cl)c(Cl)c(Cl)c2C(=O)N1Cc1ccccc1 [2-Benzyl-4,5,6,7-tetrachloro-isoindole-1,3-dione]
> 500	O=C1c2ccccc2C(=O)N1CCc1ccccc1 [2-Phenethyl-isoindole-1,3-dione]
> 500	O=C1c2ccccc2C(=O)N1c1ccccc1 [2-Phenyl-isoindole-1,3-dione]
> 500	O=C1c2c(Cl)c(Cl)c(Cl)c(Cl)c2C(=O)N1CCCc1ccccc1 [4,5,6,7-Tetrachloro-2-(3-phenyl-propyl)-isoindole-1,3-dione]
> 500	O=C1c2c(Cl)c(Cl)c(Cl)c(Cl)c2C(=O)N1CCCCCc1ccccc1 [4,5,6,7-Tetrachloro-2-(5-phenyl-pentyl)-isoindole-1,3-dione]
> 500	O=C1c2c(Cl)c(Cl)c(Cl)c(Cl)c2C(=O)N1CCCCCCc1ccccc1 [4,5,6,7-Tetrachloro-2-(6-phenyl-hexyl)-isoindole-1,3-dione]
> 500	O=C1c2c(Cl)c(Cl)c(Cl)c(Cl)c2C(=O)N1CCc1ccccc1 [4,5,6,7-Tetrachloro-2-phenethyl-isoindole-1,3-dione]
> 500	O=C1c2c(Cl)c(Cl)c(Cl)c(Cl)c2C(=O)N1CCCCc1ccccc1 [4,5,6,7-tetrachloro-2-(4-phenylbutyl)isoindoline-1,3-dione]
> 500	O=C1c2cccc(O)c2C(=O)N1c1ccccc1 [4-Hydroxy-2-phenyl-isoindole-1,3-dione]
> 500	Nc1ccc2c(c1)C(=O)N(c1ccccc1)C2=O [5-Amino-2-phenyl-isoindole-1,3-dione]
> 500	O=C1c2ccc([N+](=O)[O-])cc2C(=O)N1c1ccccc1 [5-Nitro-2-phenyl-isoindole-1,3-dione]
> 500	O=C1c2ccc(O)cc2C(=O)N1c1ccccc1 [5-hydroxy-2-phenylisoindoline-1,3-dione]

Reference: BindingDB's records for doi:10.1016/s0960-894x(00)00161-x (University of Tokyo, 2000)
